This note sets out measurements from patent publication US20170035845A1, “Compositions and Methods for Inhibiting Pro-Inflammatory Cytokine Gene Expression” (The Regents of the University of California, priority 2015, published 2017).

Assay [1] concerns TLR9-dependent NF-κB activation. The experiment in a line: TLR9-dependent NF-κB activation (SEAP) in HEK-Blue hTLR9 cells. It is filed as cell-based, human. Conditions: ODN2006, RTD-1 10 μg/ml. The method, then:
One ml aliquots of PMA-differentiated THP-1 Dual cells (3.3×10^5 cells/nil) in 24 well tissue culture plates were starved for 1 day in complete medium with 1% HI FBS as described above. For experiments with S7 peptide, 0.5 ml cultures in 48 well plates were used. Fresh medium containing 1% HI FBS was added to the cells and after 2 hours cells were stimulated with 100 ng/ml LPS or 25 ng/ml Pam3CSK4 in the presence of RTD-1 or 0.01% acetic acid (HOAc, vehicle). In some experiments cells were pre-incubated with marimastat, Ly294002 or vehicle for 1 hour prior to addition of LPS and/or RTD-1 (SEQ ID NO. 1). Following overnight incubation, medium was clarified by centrifugation and SEAP activity was determined using Quantiblue reagent at 37° C. and measurement of absorbance at 625 nm. To test the effect of RTD-1 on TLR9-dependent NF-κB activation, 2×10^5 HEK-Blue™ hTLR9 cells/ml were cultured for 1 day in 24 well plates and stimulated overnight with ODN2006 with or without RTD-1. Medium was harvested and SEAP activity was assayed using Quantiblue™ as above. NF-κB activation was defined as fold stimulation of SEAP activity with respect to control cells.

The test system of another assay is THP-1 cells. The experiment in a line: Real time quantitative PCR of cytokine mRNA, LPS-stimulated THP-1 cells. It is filed as cell-based, human. Here is the method: Differentiated THP-1 cells were treated with LPS and RTD-1 for 2 hours as above, washed with PBS and RNA was isolated using an RNA mini kit (Zymo Research, Irvine, Calif.) or with RNeasy mini kit (Qiagen, Valencia, Calif.). RNA integrity was confirmed on agarose gels and RNA samples with A260/280 and A260/230 ratios ≧1.7 were used to generate cDNA. Briefly, 400 ng RNA was incubated with genomic DNA (gDNA) elimination (GE) buffer for 5 minutes at […]. and reverse transcribed using the RT^2 first strand synthesis kit (Qiagen). Custom PCR arrays (SA Biosciences, Frederick, Md.) containing human genes of interest and controls (for reverse transcriptase and PCR efficiency, RTC and PPC respectively) were used for simultaneous real time PCR analysis. Master mix containing cDNA and RT^2 SYBR Green™ was added to array wells. PCR cycling parameters were: 1 cycle 10 minutes at 95° C., 40 cycles of 15 seconds at 95° C., 1 minute at 60° C. on a BioRad C1000 Thermal Cycler equipped with a CFX96 real time system. Melting curve analysis confirmed a single amplicon with CT PPC=20±2 and ACT (RTC-PPC)<5 for all samples. The ACTB gene was used for normalization of gene expression and fold stimulation (compared to untreated cells) was calculated using the ΔΔCT method. Absence of gDNA in cDNA samples (CT>35) was confirmed using a human gDNA primer (SA Biosciences).

For a further assay, the system named is primary human monocytes. The assay is described as follows: Cytokine secretion ELISA, LPS-stimulated primary human monocytes. It is filed as cell-based. The conditions noted are these: LPS 20 ng/ml, 4 hours, RTD-1 10 μg/ml. Here is the method:
THP-1 monocytes (ATCC, Manassas, Va.) were cultured in RPMI 1640+10% FBS and penicillin/streptomycin (P/S). THP-1 Dual cells (Invivogen, San Diego, Calif.) which express the NF-κB reporter, secreted embryonic alkaline phosphatase (SEAP), were grown in RPMI 1640+10% HI-FBS and antibiotics. THP-1 cell differentiation was induced by treatment of cells (˜3.3×10^5 cells/ml) with 100 nM PMA and cultured for 2 days. HEK-Blue™ hTLR9 cells (Invivogen) were grown in DMEM medium containing 10% HI-FBS, P/S and normocin. Cells were cultured at 37° C. in 5% CO2. Cytokine assays. PMA-differentiated THP-1 cells (˜8×10^5 cells) cultured in 6-well plates were washed twice with complete medium and grown in fresh medium containing 1% FBS for 24 hours. Cells were washed twice with fresh medium and incubated for 2 hours prior to further manipulation. Cells were stimulated with 100 ng/ml LPS in the presence or absence of 10 μg/ml RTD-1 or vehicle (0.01% acetic acid) for 2 hours. In some experiments, cells were first incubated for 1 hour with 10 μg/ml of marimastat or vehicle (DMSO), after which LPS and/or RTD-1 were added and incubated for 2 hours as above. Peripheral blood CD14+ monocytes (Lonza, Walkersville, Md.) were thawed, rinsed with RPMI 1640 containing 10% HI FBS, P/S and normocin and then resuspended in RPMI 1640 containing 1% HI FBS plus antibiotics as above (10^6 cells/nil) for 2 hours. The cells were then stimulated for 4 hours as described in the legend. Medium was collected, clarified by centrifugation first at 250×g for 8 minutes and then at 5000×g for 5 minutes. TNF-α, IL-1β and IL-8 were quantified by ELISA (Life Technologies, Carlsbad, Calif.).
(In general: An ELISA detects its analyte on a solid surface through an enzyme-linked reagent.)

Assay [2] concerns peripheral blood leukocytes. The experiment in a line: Cytokine secretion by peripheral blood leukocytes stimulated with TLR agonists. It counts as cell-based, human. Conditions: stimulated by agonists of TLRs 2, 4, 5, and 8.
The mark [3] stands for this setting: LPS 100 ng/ml, RTD-1 10 μg/ml, 2 hours.

On to “RTD-1: rhesus theta-defensin 1, macrocyclic tri-disulfide θ-defensin peptide, SEQ ID NO. 1, synthetic (cyclo(GFCRCLCRRGVCRCICTR); disulfide (positions not given here); not fully specified (bridges); also: three disulfides, places not given here; listed as Macaca mulatta)”, for which, in assay [1], the “suppression of ODN2006-mediated NF-κB activation” value was “to baseline levels”. In the assay on THP-1 cells (setting [3]), the “LPS-induced mRNA expression of CCL3” value is recorded as “markedly inhibited”, the “LPS-induced mRNA expression of CCL4” value is “markedly inhibited”, the “LPS-induced mRNA expression of IL-1β” value is “markedly inhibited” and the “LPS-induced mRNA expression of IL-8” value was “markedly inhibited”. Moreover, in the assay on THP-1 cells (setting [3]), the “LPS-induced mRNA expression of TNF-α” value is “markedly inhibited”. The “expression of GAPDH” value with THP-1 cells (addition of RTD-1) was “no effect”. For the same substance, the “cytokine mRNA expression” value in the assay on THP-1 cells (peptide alone, no LPS) is “no effect”. In addition, in the assay on primary human monocytes, the “suppression of secretion of IL-1β” value was over 90%, the “suppression of secretion of IL-8” value is listed as over 90% and the “suppression of secretion of TNF-α” value was over 90%. In addition, the “secretion of several inflammatory cytokines” value in assay [2] is on record as “suppressed secretion”.
